From patent US20240293430A1, “WITHAFERIN A AND IMMUNE CHECKPOINT BLOCKER COMBINATION THERAPIES” (University of South Florida, priority 2023, published 2024)

How the values were obtained:
[1] = system: ecto-CRT in LLC, H1650 and A549 cells; assay: Ecto-CRT (cell surface calreticulin) by flow cytometry, NSCLC; type: cell-based, mouse (LLC), human (H1650; conditions: 48 h
Method: (§1) Cells were treated with WFA for 48 h then collected using Accutase cell detachment solution. […] (FIG. 2E) Bone marrow-derived DC were co-cultured with WFA-pretreated LLC cells (24 h) in a ratio 5:1 of DC:LLC cells for 24 h.
In vitro WFA-treated or control cells were collected using Accutase cell detachment solution and stained with FACS-diluted (PBS, 10% FBS, 2 mMEDTA) pre-titrated fluorophore conjugated or primary unconjugated antibody solutions (Table 1) for 30 min on ice in the dark. In case of fluorophore-conjugated antibodies, samples are washed and immediately acquired after adding DAPI viability dye, while samples stained with unconjugated antibodies are incubated with the proper secondary fluorophore-conjugated antibody for 30 min before washing and acquisition. For in vivo experiments, the processed tumor or spleen single cell suspensions were used for surface staining with the pre-titrated antibodies (Table 1) for 30 min on ice in the dark. To exclude the dead cells from the analysis, a fixable live/dead Zombie Aqua viability kit (Biolegend, San Diego, CA, USA) was used according to the manufacturer's protocol. Samples were then fixed using 2% PFA for 15 min then washed and stored at 4° C. before acquisition. […]

[2] = system: LLC flank tumors; assay: LLC syngeneic mouse model, tumor growth; type: in vivo, C57BL/6 mice; conditions: i.p. every other day, five treatments; WFA 5 mg/kg, α-PD-L1 200 μg/mouse
Method: FIGS. 5A-5G depict that WFA sensitizes flank tumors to α-PD-L1 therapy and targets immunosuppressive MDSCs and T-regs. (FIG. 5A) Establishment of LLC flank tumors and treatment schedule. (FIG. 5B) Tumor volume measurement in mm^3 and tumor weight at the endpoint of the experiment. (FIG. 5C) Change in the levels of ecto-CRT in tumors was measured using flow cytometry. (FIGS. 5D-5G) Flow cytometry was used to determine the change in immune cell infiltration in collected tumors. […] Moreover, WFA reduced the immunosuppressive T regs (FIG. 5F) and CD11b+Gr1+MDSC (FIG. 5G) populations. The means of two independent experiments ±SEM are shown, and the statistical significance was calculated using one-way ANOVA and a Fisher LSD post hoc test where * and #represent p<0.05 and ** and ##represent p<0.01. * Symbols refer to the difference between the vehicle control and WFA, while #refers to comparisons between the vehicle control and WFA+α-PD-L1 combination.
C57BL/6 mice were purchased from the Jackson Laboratory (Bar Harbor, ME, USA) and acclimated for a week. To establish the LLC syngeneic tumors, C57BL/6 mice were injected with a half million cells on the right flank and monitored until tumors were first palpable (2-3 mm diameter). […] Tumor volumes (mm^3) were calculated using the equation (length^2 x width/2), where the length is defined as the bigger tumor dimension. […]

[3] = system: secreted HMGB-1 from LLC cells; assay: HMGB-1 ELISA of supernatants; type: cell-based, mouse; conditions: 0.6 μM WFA, 48 h
Method: as §1
LLC cells were plated and treated with WFA or doxorubicin (ICD inducer) for 48 h. Supernatants were collected and centrifuged at 1000 RPM for 10 min. The levels of secreted HMGB-1 were measured using the HMGB-1 detection ELISA kit (Chondrex, 6010, Woodinville, WA, USA) according to the manufacturer's protocol.

SMILES: CC1=C(CO)C(=O)O[C@@H]([C@@H](C)[C@H]2CC[C@H]3[C@@H]4C[C@H]5O[C@]56[C@@H](O)C=CC(=O)[C@]6(C)[C@H]4CC[C@]23C)C1 [WFA, Withaferin A]
- ecto-CRT expression [1]: increased
- tumor size / tumor growth [2]: non-significant reduction
- HMGB-1 levels secreted in the supernatants [3]: increased
